Source: patent publication EP0430194A2, “Aryl-alkyl-azoles substituted with many times unsaturated groups, process for their preparation and their use” (HOECHST AKTIENGESELLSCHAFT, priority 1989, dated 1991)

How the values were obtained:
[1] = tested on: freigesetzten Exoenzyme von Candida albicans; experiment: In vitro enzyme test: inhibition of released exoenzymes of Candida albicans blastoconidia on egg-yolk agar plate; assay type: cell-based; conditions: Stamm 200/175
Source text: Als Beispiel für die Hemmung der pathogenen Phase dimorpher Hefezellen werden Ergebnisse eines in-vitro-Enzymtests angeführt, in welchen die prozentuale Hemmung freigesetzter Exoenzyme, insbesondere freigesetzter Lysophospholipase (Phospholipase B), als Maß für die Wirksamkeit bestimmt wird.
Zur Feststellung der Enzymhemmung wurde eine Suspension von Candida albicans Blastokonidien (Stamm 200/175), wobei die Keimdichte photometrisch auf eine Extinktion von 0,5 (500 nm) eingestellt war, mit Präparatelösung bzw. zur Kontrolle mit Lösungsmittellösung vermischt und zwar • a) 100 µl Präparatelösung (Suspension) + 900 µl Keimsuspension • b) 100 µl Lösungsmittel + 900 µl Keimsuspension
Jeweils 5 µl der 30 min bei 21°C inkubierten Blastokonidiensuspension wurden auf eine Agarplatte (Sabourand Agar mit Zusatz von 8 % Eigelb, 1 M NaCl, 5 mM CaCl₂) aufgetropft.
Die so beimpfte Platte wurde 3 Tage bei 37°C bebrütet.
Die Auswertung erfolgte derart, daß • 1. der Durchmesser (mm) der Candida albicans-Kolonie (behandelt und unbehandelt) sowie • 2. der Gesamtdurchmesser von Kolonie und Trübungshof, welcher durch Exoenzyme verursacht wurde (behandelt und unbehandelt) bestimmt wurde.
Aus der Bestimmung des Quotienten von Präparate- und Kontrollgruppe ergab sich ein Wert, der als Maß für die Enzymaktivität anzusehen war.

[2] = tested on: Trichophyton mentagrophytes; experiment: Local in vivo efficacy, dermal treatment of guinea pigs infected with Trichophyton mentagrophytes; conditions: Dermal 5 x 0,1 %; for Mykosen (Durchmesser in mm) Mittelwert (Standardabweich.): Meerschweinchen (Pirbright white), from day 3 after infection, n = 6; for Reduktion in %: Meerschweinchen, relative to Bifonazol = 100,0
Source text: Als Beispiel für die hohe lokale in vivo Wirksamkeit der erfindungsgemäßen Verbindungen werden Behandlungsergebnisse an Experimenten mit Trichophyton mentagrophytes infizierten Labortieren angeführt.
Zur Feststellung der lokalen Wirksamkeit wurde jeweils ein 450 - 500 g schweres Meerschweinchen (Stamm Pirbright white) mit 1,5 x 10⁴ Konidien/Tier in die Epidermis verteilt auf 6 Infektionspunkte, infiziert.
Die Behandlung der Tiere erfolgte dermal ab dem 3. Tag nach der Infektion an 5 aufeinander folgenden Tagen durch Aufbringen einer 0,1 %igen Präparatlösung auf 6 Infektionsstellen der Rückenseite.
Neben den mit den erfindungsgemäßen Substanzen behandelten Tieren wurde ein Tier mit der Referenzsubstanz Bifonazol behandelt, ein Tier blieb nach der Infektion unbehandelt.

[3] = tested on: Phospholipase aus Leberzellen; conditions: literature, Biochem. Pharmacol. 34, 521-24, 1985; cited from earlier work
[4] = Präparat-Konzentration 10 µg/ml
[5] = Präparat-Konzentration 50 µg/ml
[6] = Präparat-Konzentration 100 µg/ml

| SMILES | Prozentuale Hemmung der freigesetzten Exoenzyme von Candida albicans in vitro [1, 4] | Prozentuale Hemmung der freigesetzten Exoenzyme von Candida albicans in vitro [1, 5] [%] | Prozentuale Hemmung der freigesetzten Exoenzyme von Candida albicans in vitro [1, 6] [%] | Mykosen (Durchmesser in mm) Mittelwert (Standardabweich.) [2] | Reduktion in % [2] | Hemmwirkung gegenüber Phospholipase aus Leberzellen [3] |
| --- | --- | --- | --- | --- | --- | --- |
| CC(C)=CCC/C(C)=C\COC(Cn1cncn1)c1ccc(Cl)s1 (racemic) [Beispiel 42] | 50,0% | 100 | 100 | – | – | – |
| CC(C)=CCC/C(C)=C\COC(Cn1ccnc1)c1ccco1 (racemic) [Beispiel 47] | – | – | – | 3,6 (0,8) mm | 127,7% | – |
| CC(C)NCC(O)COc1cccc2ccccc12 (stereo not shown) [Propranolol, reference compound] | 0% | 10 | 30 | – | – | Hemmwirkung zeigte |
| CC(C)=CCC/C(C)=C\COC(Cn1cncn1)c1ccc(Cl)cc1Cl (racemic) [Beispiel 5] | – | – | – | 2,6 (1,5) mm | 176,9% | – |
| c1ccc(-c2ccc(C(c3ccccc3)n3ccnc3)cc2)cc1 (stereo not shown) [Bifonazol, reference compound] | – | – | – | 4,6 (1,5) mm | 100,0% | – |
| CC(C)=CCC/C(C)=C\COC(Cn1ccnc1)c1ccc(Cl)cc1Cl (racemic) [Beispiel 2, (R,S)-1-(2,4-Dichlorphenyl)-1-(cis-3,7-dimethyl-2,6-octadien-1-oxy)-2-(imidazol-1-yl)-ethan] | 41,2% | 100 | 100 | 3,3 (0,5) mm | 139,3% | – |
| CC(C)=CCC/C(C)=C\COC(Cn1ccnc1)c1ccccn1 (racemic) [Beispiel 46] | – | – | – | 2,8 (1,6) mm | 164,2% | – |
| CC(C)=CCC/C(C)=C\COC(CCn1ccnc1)c1cccs1 (racemic) [Beispiel 40] | – | – | – | 2,8 (1,7) mm | 164,2% | – |
